In brackets after ≈: the same amount, converted by molar mass.
Experiments:
[1] = system: ASAU001 (laboratory strain of S. aureus, ATCC29213); assay: MIC broth microdilution, ASAU001; format: cell-based; details: for MIC: Staphylococcus aureus, ATCC29213, read-out: MIC ASAU001
Summary of the method: (§1)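 Minimum inhibitory concentrations followed CLSI broth microdilution guidelines: cation-adjusted Mueller-Hinton broth, 2-fold serial drug dilutions, final inoculum 3×10^5–7×10^5 CFU/mL, ambient air at 35° C. for 18-24 hours. Quality-control strains and levofloxacin monitored performance.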

[2] = system: APAE006 in the presence of 8 micrograms per milliliter of polymyxin B nonapeptide; format: cell-based, P. aeruginosa; details: in the presence of 8 micrograms per milliliter of polymyxin B nonapeptide
Summary of the method: (§2)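 CLSI broth microdilution in cation-adjusted Mueller-Hinton broth, final inoculum 3×10^5–7×10^5 CFU/mL, 2-fold drug dilutions, 18-24 hours at 35° C. in ambient air. APAE006 is an efflux-pump-inactivated P. aeruginosa strain. Assay performance monitored with QC strains and levofloxacin.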

APAE001 (ATCC27853) = assay: MIC broth microdilution, APAE001; format: cell-based, P. aeruginosa; details: for MIC: Pseudomonas aeruginosa, ATCC27853, read-out: MIC APAE001, APAE001 is ATCC27853
Summary of the method: as §1

[3] = system: AECO063 (ATCC25922 bearing an acrAB mutation); assay: microbe, parasite or virus in culture; format: cell-based, E. coli; details: for MIC: Escherichia coli, ATCC25922, read-out: MIC AECO063
Summary of the method: as §1

AECO001 HSA AGP = assay: MIC broth microdilution, AECO001 HSA AGP; format: cell-based, E. coli; details: for MIC: Escherichia coli
Summary of the method: as §1

[4] = system: AABA1060 (clinical isolate of Acinetobacter baumannii); assay: MIC broth microdilution, AABA1060; format: cell-based; details: for MIC: Acinetobacter baumannii, read-out: MIC AABA1060
Summary of the method: as §1

AECO001 (ATCC25922) = assay: MIC broth microdilution, AECO001; format: cell-based, E. coli; details: for MIC: Escherichia coli, ATCC25922, read-out: MIC AECO001
Summary of the method: as §1

[5] = system: APAE006 (strain of P. aeruginosa in which all efflux pumps are inactivated); assay: microbe, parasite or virus in culture; format: cell-based; details: for MIC: Pseudomonas aeruginosa, read-out: MIC APAE006, P. aeruginosa, all efflux pumps inactivated
Summary of the method: as §2

SMILES	MIC [1]	MIC APAE006 + PMBN [2]	MIC (APAE001 (ATCC27853))	MIC [3]	MIC (AECO001 HSA AGP)	MIC [4]	MIC (AECO001 (ATCC25922))	MIC [5]	MIC ASAU001 ([1]; S. aureus ATCC29213)	MIC APAE001 (APAE001 (ATCC27853); APAE001 is ATCC27853)	MIC AECO063 ([3]; ATCC25922 bearing an acrAB mutation)	MIC AECO001 HSA AGP (AECO001 HSA AGP)	MIC AABA1060 ([4]; clinical isolate of Acinetobacter baumannii)	MIC AECO001 (AECO001 (ATCC25922); AECO001 is ATCC25922)	MIC APAE006 ([5]; P. aeruginosa, all efflux pumps inactivated)
NC[C@H](NC(=O)c1ccc(C#C/C=C/c2ccc(CO)cc2)cc1)C(=O)NO [Example 101-2]	16 to 64 µg/mL (≈ 42.2 to 169 µM)	A (MIC's of 2.0 μg/mL or less = A)	2 to 16 µg/mL (≈ 5.27 to 42.2 µM)	< 2 µg/mL	16 to 64 µg/mL (≈ 42.2 to 169 µM)	16 to 64 µg/mL (≈ 42.2 to 169 µM)	< 2 µg/mL	< 2 µg/mL							
C[C@@H](N)[C@H](NC(=O)c1ccc(C#Cc2ccc(CNCCF)cc2)cc1)C(=O)NO [Example 118-9]	16 to 64 µg/mL (≈ 38.8 to 155 µM)	A (MIC's of 2.0 μg/mL or less = A)	< 2 µg/mL	< 2 µg/mL	2 to 16 µg/mL (≈ 4.85 to 38.8 µM)	2 to 16 µg/mL (≈ 4.85 to 38.8 µM)	< 2 µg/mL	< 2 µg/mL							
C[C@@H](N)[C@H](NC(=O)c1ccc(C#CC#Cc2ccccn2)cc1)C(=O)NO [Example 88-4]	> 64 µg/mL	A (MIC's of 2.0 μg/mL or less = A)	< 2 µg/mL	< 2 µg/mL	16 to 64 µg/mL (≈ 44.2 to 177 µM)	16 to 64 µg/mL (≈ 44.2 to 177 µM)	2 to 16 µg/mL (≈ 5.52 to 44.2 µM)	< 2 µg/mL							
C[C@@H](N)[C@H](NC(=O)c1ccc(C#C/C=C/c2ccccc2)cc1)C(=O)NO [Example 104-4]	16 to 64 µg/mL (≈ 44 to 176 µM)	A (MIC's of 2.0 μg/mL or less = A)	< 2 µg/mL	< 2 µg/mL	2 to 16 µg/mL (≈ 5.5 to 44 µM)	2 to 16 µg/mL (≈ 5.5 to 44 µM)	< 2 µg/mL	< 2 µg/mL							
CO[C@H](C)[C@H](NC(=O)c1ccc(/C=C/C#Cc2ccc(CNC3CC3)cc2)cc1)C(=O)NO [Example 113-7]	> 64 µg/mL	A (MIC's of 2.0 μg/mL or less = A)	2 to 16 µg/mL (≈ 4.47 to 35.8 µM)	< 2 µg/mL	2 to 16 µg/mL (≈ 4.47 to 35.8 µM)	2 to 16 µg/mL (≈ 4.47 to 35.8 µM)	< 2 µg/mL	< 2 µg/mL							
C[C@@H](NCC(=O)N[C@H](C)[C@H](NC(=O)c1ccc(C#C/C=C/c2ccccc2)cc1)C(=O)NO)c1ccccc1 [Example 105-5]	16 to 64 µg/mL (≈ 30.5 to 122 µM)	A (MIC's of 2.0 μg/mL or less = A)	16 to 64 µg/mL (≈ 30.5 to 122 µM)	< 2 µg/mL	2 to 16 µg/mL (≈ 3.81 to 30.5 µM)	16 to 64 µg/mL (≈ 30.5 to 122 µM)	2 to 16 µg/mL (≈ 3.81 to 30.5 µM)	2 to 16 µg/mL (≈ 3.81 to 30.5 µM)							
C[C@@H](O)[C@H](NC(=O)c1ccc(/C=C/C#Cc2ccc(CN3CCOCC3)cc2)cc1)C(=O)NO [Example 30-12a]	> 64 µg/mL	A (MIC's of 2.0 μg/mL or less = A)	< 2 µg/mL	< 2 µg/mL	< 2 µg/mL	2 to 16 µg/mL (≈ 4.31 to 34.5 µM)	< 2 µg/mL	< 2 µg/mL							
C[C@@H](N)[C@H](NC(=O)c1ccc(C#Cc2ccc(CS(C)(=O)=O)cc2)cc1)C(=O)NO [Example 120-2]	16 to 64 µg/mL (≈ 37.3 to 149 µM)	A (MIC's of 2.0 μg/mL or less = A)	2 to 16 µg/mL (≈ 4.66 to 37.3 µM)	< 2 µg/mL	16 to 64 µg/mL (≈ 37.3 to 149 µM)	16 to 64 µg/mL (≈ 37.3 to 149 µM)	2 to 16 µg/mL (≈ 4.66 to 37.3 µM)	< 2 µg/mL							
CC(C)(O)[C@H](NC(=O)c1ccc(C#C/C=C/c2ccc(CNC3CC3)cc2)cc1)C(=O)NO [Example 102-5]	> 64 µg/mL	A (MIC's of 2.0 μg/mL or less = A)	< 2 µg/mL	< 2 µg/mL	< 2 µg/mL	2 to 16 µg/mL (≈ 4.47 to 35.8 µM)	< 2 µg/mL	< 2 µg/mL							
C[C@@H](O)[C@H](NC(=O)c1ccc(C#CC#Cc2ccc(CNC3CC3)cc2)cc1)C(=O)NO [Example 87-2]	16 to 64 µg/mL (≈ 37.1 to 148 µM)	A (MIC's of 2.0 μg/mL or less = A)	< 2 µg/mL	< 2 µg/mL	< 2 µg/mL	16 to 64 µg/mL (≈ 37.1 to 148 µM)	< 2 µg/mL	< 2 µg/mL							
C[C@@H](N)[C@H](NC(=O)c1ccc(/C=C/C#Cc2ccc(CNC3CC3)cc2)cc1)C(=O)NO [Example 113-2]	> 64 µg/mL	A (MIC's of 2.0 μg/mL or less = A)	< 2 µg/mL	< 2 µg/mL	2 to 16 µg/mL (≈ 4.62 to 37 µM)	2 to 16 µg/mL (≈ 4.62 to 37 µM)	< 2 µg/mL	< 2 µg/mL							
C[C@@H](N)[C@H](NC(=O)c1ccc(C#Cc2ccc(CN3CCC(F)(F)C3)cc2)cc1)C(=O)NO [Example 118-3]	16 to 64 µg/mL (≈ 35 to 140 µM)	A (MIC's of 2.0 μg/mL or less = A)	2 to 16 µg/mL (≈ 4.38 to 35 µM)	< 2 µg/mL	2 to 16 µg/mL (≈ 4.38 to 35 µM)	2 to 16 µg/mL (≈ 4.38 to 35 µM)	< 2 µg/mL	< 2 µg/mL							
C[C@@H](NC(=O)CNC1CC1)[C@H](NC(=O)c1ccc(C#C/C=C/c2ccccc2)cc1)C(=O)NO [Example 105-3]		A (MIC's of 2.0 μg/mL or less = A)							C (MIC's of greater than 16.0 μg/mL to 64.0 μg/mL = C)	C (MIC's of greater than 16.0 μg/mL to 64.0 μg/mL = C)	B (MIC's of greater than 2.0 μg/mL to 16.0 μg/mL = B)	C (MIC's of greater than 16.0 μg/mL to 64.0 μg/mL = C)	C (MIC's of greater than 16.0 μg/mL to 64.0 μg/mL = C)	C (MIC's of greater than 16.0 μg/mL to 64.0 μg/mL = C)	B (MIC's of greater than 2.0 μg/mL to 16.0 μg/mL = B)
C[C@@H](N)[C@H](NC(=O)c1ccc(/C=C/C#Cc2ccc(OC(F)(F)F)cc2)cc1)C(=O)NO [Example 114-7]	2 to 16 µg/mL (≈ 4.47 to 35.8 µM)	A (MIC's of 2.0 μg/mL or less = A)	2 to 16 µg/mL (≈ 4.47 to 35.8 µM)	< 2 µg/mL	2 to 16 µg/mL (≈ 4.47 to 35.8 µM)	2 to 16 µg/mL (≈ 4.47 to 35.8 µM)	2 to 16 µg/mL (≈ 4.47 to 35.8 µM)	2 to 16 µg/mL (≈ 4.47 to 35.8 µM)							
O=C(NC(C(=O)NO)C1CCOCC1)c1ccc(C#Cc2ccc(CN3CCOCC3)cc2)cc1 (centres unmarked) [Example 67-5, N-[hydroxycarbamoyl-(tetrahydro-pyran-4-yl)-methyl]-4-(4-morpholin-4-ylmethyl-phenylethynyl)-benzamide]	> 64 µg/mL	A (MIC's of 2.0 μg/mL or less = A)	2 to 16 µg/mL (≈ 4.19 to 33.5 µM)	< 2 µg/mL	2 to 16 µg/mL (≈ 4.19 to 33.5 µM)	16 to 64 µg/mL (≈ 33.5 to 134 µM)	< 2 µg/mL	< 2 µg/mL							
C[C@@H](N)[C@H](NC(=O)c1ccc(/C=C/C#Cc2ccc(CN3CCOCC3)cc2)cc1)C(=O)NO [Example 110-3]	> 64 µg/mL	A (MIC's of 2.0 μg/mL or less = A)	< 2 µg/mL	< 2 µg/mL	2 to 16 µg/mL (≈ 4.32 to 34.6 µM)	2 to 16 µg/mL (≈ 4.32 to 34.6 µM)	< 2 µg/mL	< 2 µg/mL							
C[C@@H](O)[C@H](NC(=O)c1ccc(C#Cc2ccc(C(F)(F)F)nc2)cc1)C(=O)NO [Example 133-10]	16 to 64 µg/mL (≈ 39.3 to 157 µM)	A (MIC's of 2.0 μg/mL or less = A)	16 to 64 µg/mL (≈ 39.3 to 157 µM)	< 2 µg/mL	2 to 16 µg/mL (≈ 4.91 to 39.3 µM)	16 to 64 µg/mL (≈ 39.3 to 157 µM)	2 to 16 µg/mL (≈ 4.91 to 39.3 µM)	< 2 µg/mL							
C[C@@H](N)[C@H](NC(=O)c1ccc(C#CC#Cc2ccc(CNC3CC3)cc2)cc1)C(=O)NO [Example 86-3]	16 to 64 µg/mL (≈ 37.2 to 149 µM)	A (MIC's of 2.0 μg/mL or less = A)	< 2 µg/mL	< 2 µg/mL	< 2 µg/mL	2 to 16 µg/mL (≈ 4.65 to 37.2 µM)	< 2 µg/mL	< 2 µg/mL							
C[C@@H](N)[C@H](NC(=O)c1ccc(C#CC#Cc2ccc(CN3CCOCC3)cc2)cc1)C(=O)NO [Example 86-2]	16 to 64 µg/mL (≈ 34.7 to 139 µM)	A (MIC's of 2.0 μg/mL or less = A)	2 to 16 µg/mL (≈ 4.34 to 34.7 µM)	< 2 µg/mL	< 2 µg/mL	2 to 16 µg/mL (≈ 4.34 to 34.7 µM)	< 2 µg/mL	< 2 µg/mL							

Reference: patent US9617256B2 (priority 2007, dated 2017)
